We go through 48 sequences from publication PMC9928118, “Funneling modulatory peptide design with generative models: Discovery and characterization of disruptors of calcineurin protein-protein interactions” (PLOS Computational Biology, 2023).

The test concerns GST-tagged Cn. Kind of test: PEPperPRINT peptide microarray binding assay with GST-tagged Cn. The method in brief: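 Qualitative binding: peptides printed on a PEPperPRINT microarray were incubated overnight at 4 °C with 1 mg/ml GST-tagged Cn, then detected with Alexa-Fluor 647 anti-GST antibody. Log fluorescence was baseline-corrected, averaged over duplicate spots, Z-normalized and averaged across five repeats.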

Setting [1] is: max over the spots listed under Location on chip.
Where [2] appears, read: mean over the spots listed under Location on chip.
The mark [3] stands for this setting: GST-tagged Cn, max over the spots on the chip (two locations).
[4] abbreviates: GST-tagged Cn, mean over the spots on the chip (two locations).
Where [5] appears, read: max over the chip locations listed for the peptide (two spots).
Setting [6] is: mean over the chip locations listed for the peptide (two spots).
The mark [7] stands for this setting: GST-tagged Cn, max over the chip spots listed under Location on chip.
The mark [8] stands for this setting: GST-tagged Cn, mean over the chip spots listed under Location on chip.
The mark [9] stands for this setting: GST-tagged Cn, max over the spots named in Location on chip.
Where [10] appears, read: GST-tagged Cn, mean over the spots named in Location on chip.
Where [11] appears, read: GST-tagged Cn, max over the chip locations.
Setting [12] is: GST-tagged Cn, mean over the chip locations.

Turning to LKDEIPEVRLNIISAL [SeqRBMlowT_1072], the “Chip Fluorescence (max)” value under setting [1] amounted to 2.998. Further, under setting [2], the “Chip Fluorescence (mean)” value is listed as 0.7654.
As for QAVMCTAMSWCDCGQR [SeqRBM_6860], the “Chip Fluorescence (max)” value under setting [3] amounted to 1.273. The “Chip Fluorescence (mean)” value under setting [4] worked out at 0.6916.
Turning to LNRIEIFVTFNFTRNS [Seqshuffled_5110], the “Chip Fluorescence (max)” value under setting [1] is given as 3.363. For the same sequence, the “Chip Fluorescence (mean)” value under setting [2] is listed as 0.477.
Turning to RAYINPFMTFIDGGHR [SeqRBMlowT_1519], under setting [5], the “Chip Fluorescence (max)” value was 3.708. Besides, the “Chip Fluorescence (mean)” value under setting [6] came to 0.9074.
RSYDVPVFLFTYLPNP [SeqRBM_7048]: the “Chip Fluorescence (max)” value under setting [5] was determined as 4.515. For the same sequence, the “Chip Fluorescence (mean)” value under setting [6] came to 0.06008.
TFWTNPQFRIKLEDPD [SeqRBMlowT_91]: the “Chip Fluorescence (max)” value under setting [1] is 2.652. Also, the “Chip Fluorescence (mean)” value under setting [2] was found to be 0.4239.
In the case of RQPGTFLLTLRGHKKQ [SeqRBMlowT_6149], under setting [7], the “Chip Fluorescence (max)” value is listed as 0.9861. For the same sequence, under setting [8], the “Chip Fluorescence (mean)” value came to 0.123.
Take AKMAPPAINIDFAPPN [SeqRBMlowT_7690]: the “Chip Fluorescence (max)” value under setting [9] is listed as 1.862. In addition, the “Chip Fluorescence (mean)” value under setting [10] was -0.1462.
SQFDQVHYGLHIATFH [Seqshuffled_4372]: the “Chip Fluorescence (max)” value under setting [3] amounted to 1.111. Also, the “Chip Fluorescence (mean)” value under setting [4] was 0.4902.
As to TFWTNPQYRIKLTDAD [SeqRBMlowT_4313], under setting [7], the “Chip Fluorescence (max)” value was 0.4524. Moreover, the “Chip Fluorescence (mean)” value under setting [8] is reported as -0.5715.
For ASEANPEITITPAELP [SeqRBMlowT_410], the “Chip Fluorescence (max)” value under setting [3] was 1.116. The “Chip Fluorescence (mean)” value under setting [4] is reported as -0.403.
As to TFWSNPQFKIKLEEED [SeqRBMlowT_8507], the “Chip Fluorescence (max)” value under setting [3] is given as 1.116. Besides, the “Chip Fluorescence (mean)” value under setting [4] was -0.2464.
As to TFWTNPQFKITLEEED [SeqRBMlowT_217], under setting [5], the “Chip Fluorescence (max)” value is listed as 4.393. Also, under setting [6], the “Chip Fluorescence (mean)” value is on record as 0.02338.
The corresponding values for SFWTNPQFKITLEEPD [SeqRBMlowT_6820] are 5.89 and 1.37.
As for NKLKIPHQLSQPINDH [SeqRBM_2163], under setting [1], the “Chip Fluorescence (max)” value was determined as 2.778. Moreover, under setting [2], the “Chip Fluorescence (mean)” value turned out to be 0.1403.
As for RNPGQALLELRGHSAS [SeqRBMlowT_6125], the “Chip Fluorescence (max)” value under setting [7] is on record as 0.4069. Moreover, the “Chip Fluorescence (mean)” value under setting [8] is given as -0.3301.
As for PFLAEQYMVVEEMTVS [Seqshuffled_9732], under setting [9], the “Chip Fluorescence (max)” value was 1.48. Further, the “Chip Fluorescence (mean)” value under setting [10] is recorded as -0.4167.
On the same counts, the results for “KAYMSPFMQFVDAGRR [SeqSFB3_Nasonia_vitripennis]” are 1.597 and -0.04342.
Consider SQLAAPAINIDFAPTN [SeqRBMlowT_5061], for which the “Chip Fluorescence (max)” value under setting [11] stood at 0.08477. Besides, the “Chip Fluorescence (mean)” value under setting [12] is listed as -0.8412.
Take PQMAPPAINIDFAPTN [SeqRBMlowT_2475]: the “Chip Fluorescence (max)” value under setting [9] is reported as 1.458. Moreover, the “Chip Fluorescence (mean)” value under setting [10] is on record as -0.38.
The corresponding values for RQPGQALLTLRGHKKQ [SeqRBMlowT_5816] are 1.5016 and 0.5912.
ASEAAPTINIDFAPNP [SeqRBMlowT_1832]: the “Chip Fluorescence (max)” value under setting [5] was determined as 4.3558. The “Chip Fluorescence (mean)” value under setting [6] is -0.1882.
Turning to TFWTNPQFRLTLLSPD [SeqRBMlowT_9173], the “Chip Fluorescence (max)” value under setting [3] stood at 1.238. For the same sequence, under setting [4], the “Chip Fluorescence (mean)” value was 0.4236.
Consider SAGTGVGIVITVTEAE [SeqRBMlowT_1404], for which the “Chip Fluorescence (max)” value under setting [5] came out at 4.275. Moreover, the “Chip Fluorescence (mean)” value under setting [6] was 0.4123.
The corresponding values for GGPGTPTRQGQHLAPG [SeqRBMlowT_9846] are 21.0979 and 2.702.
For the sequence GYDIDPAISFDSDLML [Seqshuffled_9502], the “Chip Fluorescence (max)” value under setting [1] was 3.174. The “Chip Fluorescence (mean)” value under setting [2] is 2.023.
With PAFFCEGFTIQADSLD [Seqshuffled_9825], under setting [3], the “Chip Fluorescence (max)” value was found to be 1.294. The “Chip Fluorescence (mean)” value under setting [4] is listed as 0.4829.
In the case of “TFHLNPQYRITLEDPD [SeqCAPN11_Daphnia_magna_3]”, under setting [9], the “Chip Fluorescence (max)” value is 1.7985. Besides, under setting [10], the “Chip Fluorescence (mean)” value came out at 0.6671.
With GSMLVPAINIDYAPTN [SeqRBMlowT_5048], under setting [1], the “Chip Fluorescence (max)” value came to 2.642. For the same sequence, under setting [2], the “Chip Fluorescence (mean)” value turned out to be 1.025.
For KKMAPPCINIDPAPEN [SeqRBMlowT_2431], under setting [5], the “Chip Fluorescence (max)” value is recorded as 3.662. Also, the “Chip Fluorescence (mean)” value under setting [6] is 0.8549.
As to GGPGTPGRQGGHLAPS [SeqRBMlowT_9820], under setting [3], the “Chip Fluorescence (max)” value is recorded as 1.277. For the same sequence, under setting [4], the “Chip Fluorescence (mean)” value is listed as -0.2851.
As for VSLYEDALGLGQFSLS [SeqRBM_4294], the “Chip Fluorescence (max)” value under setting [1] is 2.638. In addition, under setting [2], the “Chip Fluorescence (mean)” value worked out at 0.5735.
The corresponding values for HVSSSPRITITPTQHR [SeqRBMlowT_743] are 2.778 and 0.8662.
On the same counts, the results for TFWTNPQFRITLDSPD [SeqRBMlowT_5998] are 2.88 and 0.5672.
The corresponding values for DSSANPEITITPAELP [SeqRBMlowT_4460] are 2.624 and 0.4288.
As to TTSTNPQIRITDHEDE [Seqshuffled_9411], the “Chip Fluorescence (max)” value under setting [3] is reported as 1.2864. In addition, the “Chip Fluorescence (mean)” value under setting [4] is -7.047.
As for GTMSPPDISITPPYAP [SeqRBM_3223], the “Chip Fluorescence (max)” value under setting [11] worked out at 0. Further, the “Chip Fluorescence (mean)” value under setting [12] is -0.3136.
Regarding KAYINPSMVFIEGGRR [SeqRBM_7863], the “Chip Fluorescence (max)” value under setting [1] was determined as 2.964. For the same sequence, the “Chip Fluorescence (mean)” value under setting [2] was 0.9132.
As for FSMLIGMHEPHPNTTI [Seqrandom_9971], the “Chip Fluorescence (max)” value under setting [9] was determined as 1.524. In addition, under setting [10], the “Chip Fluorescence (mean)” value is listed as -0.1169.
Take TFWTNPQFRIKVEDPD [SeqRBMlowT_6818]: the “Chip Fluorescence (max)” value under setting [3] stood at 1.08. In addition, the “Chip Fluorescence (mean)” value under setting [4] is given as -0.755.
For “TFWMNPQYMIKLEEED [SeqCAPN11_Monodelphis_domestica]”, the “Chip Fluorescence (max)” value under setting [5] is recorded as 4.262. Further, the “Chip Fluorescence (mean)” value under setting [6] is 0.2921.
For the sequence STASLPTFSFSPLAPS [SeqRBMlowT_9999], the “Chip Fluorescence (max)” value under setting [1] is reported as 2.669. Besides, under setting [2], the “Chip Fluorescence (mean)” value is listed as -0.6649.
Take TPVSDHNFALDVSGKP [Seqshuffled_9616]: the “Chip Fluorescence (max)” value under setting [9] is 1.846. Also, under setting [10], the “Chip Fluorescence (mean)” value is reported as 0.06645.
Take SAGAGVQIVITVTEAE [SeqRBMlowT_1437]: the “Chip Fluorescence (max)” value under setting [3] amounted to 1.271. In addition, under setting [4], the “Chip Fluorescence (mean)” value was -0.4781.
In the case of HVEDTTEFALQRPSND [Seqshuffled_9422], the “Chip Fluorescence (max)” value under setting [9] is listed as 1.612. Also, under setting [10], the “Chip Fluorescence (mean)” value is given as 0.1762.
The corresponding values for RQPGQALLTLRGHSAP [SeqRBMlowT_5806] are 1.328 and -0.3044.
As for STSSLPTFSFSSPQPS [SeqRBMlowT_3925], under setting [3], the “Chip Fluorescence (max)” value was 1.1241. Besides, the “Chip Fluorescence (mean)” value under setting [4] is listed as -0.7201.
RQPGTAPANLVGHKKQ [SeqRBM_2906]: the “Chip Fluorescence (max)” value under setting [7] is reported as 0.7504. Moreover, the “Chip Fluorescence (mean)” value under setting [8] is recorded as -0.5221.
